# Assay results taken from patent EP0313981A2, “3-(4-Chlorphenyl)-2,2-dimethyl-3-hydroxy-4-(1,2,4-triazol-1-yl)-butyronitril” (BAYER AG, priority 1987, dated 1989).
# What was measured:
# Tricho-phyton mentagr. = test: Antifungal in vitro activity (MIC), Kimmig medium; type: cell-based; conditions: Trichophyton mentagrophytes, inoculum 5 x 10³ Keime/ml, 28 °C, 96 h, read-out: MHK-Werte (minimale Hemmkonzentration)
# Procedure: (§1) Die in-vitro-Prüfungen wurden mit Keiminokula von durchschnittlich 5 x 10³ Keimen/ml Substrat durchgeführt. Als Nährmedium diente Kimmig-Medium.
# (§2) Die Bebrütungstemperatur betrug 28 °C, die Bebrütungsdauer lag bei 24 bis 96 Stunden bei Hefen und 96 Stunden bei Dermatophyten und Schimmelpilzen.
# Asper-gillus fumi-gatus = test: Antifungal in vitro activity (MIC), Kimmig medium; type: cell-based; conditions: Aspergillus fumigatus, inoculum 5 x 10³ Keime/ml, 28 °C, 96 h, read-out: MHK-Werte (minimale Hemmkonzentration)
# Procedure: as §1, §2
# Micro-sporum canis = test: Antifungal in vitro activity (MIC), Kimmig medium; type: cell-based; conditions: Microsporum canis, inoculum 5 x 10³ Keime/ml, 28 °C, 96 h, read-out: MHK-Werte (minimale Hemmkonzentration)
# Procedure: as §1, §2
# [1] = tested on: Candida albi-cans und sp.; test: Antifungal in vitro activity (MIC), Kimmig medium; type: cell-based, Candida albicans; conditions: inoculum 5 x 10³ Keime/ml, 28 °C, 24 to 96 h, read-out: MHK-Werte (minimale Hemmkonzentration)
# Procedure: as §1, §2
# [2] = tested on: Trichophyton mentagrophytes; test: Antimicrobial in vivo activity (oral) in experimental guinea pig trichophytosis; parameters: species or system Meerschweinchen der Rasse Pirbright-white; key to Wirkung: +++++: = sehr gute Wirkung = keine Infektionszeichen am 12. bis 15. Tag p.i.; ++++: = gute Wirkung = geringe Rötung, vereinzelt Schuppen; +++: = Wirkung = Rötung, Schuppen ohne Haarausfall; ++: = schwache Wirkung = Rötung, Schuppen, Haaraus-fall; +: = Spurwirkung = flächiger Haarausfall, entzündliche Hautreaktion; k.w.: = keine Wirkung = kein Unterschied zur unbehandelten Kontrolle; conditions: 1 x 2,5 mg/kg per day for 10 days; for Wirkung (in words): guinea pig trichophytosis; for Wirkung: guinea pigs infected on the back with Trichophyton mentagrophytes, signs of infection day 12 to 15 p.i.
# Procedure: Weiße Meerschweinchen der Rasse Pirbright-white werden auf dem geschorenen, nicht skarifizierten Rücken mit einer Mikro- und Makrokonidien-Suspension von Trichophyton mentagrophytes infiziert.
# Die infizierten Tiere werden beginnend mit dem Tag der Infektion 1 x täglich mit 2,5 mg/kg Körpergewicht der Präparate oral behandelt. Die Behandlung wird 10 Tage fortgesetzt; die Tagesdosis beträgt jeweils 1 mal 2,5 mg/kg Körpergewicht.
# Bei unbehandelten Tieren entwickelt sich innerhalb von 12 Tagen p.i. das typische Bild einer Dermatophytose mit Rötung, Schuppung und Haarausfall bis zum totalen Integument-Defekt an der Infektionsstelle.
# Candida-Zellen = test: Antifungal in vivo activity (oral) in mouse candidiasis; parameters: species or system Mäuse vom Typ SPF-CF₁; conditions: 2 x 5,0 mg/kg per day for 5 days; for Wirkung: mice infected i.v. with 1 x 10⁶ Candida cells, survivors on day 6 p.i.; for Wirkung (in words): mouse candidiasis
# Procedure: Mäuse vom Typ SPF-CF₁ werden intravenös mit 1 x 10⁶ logarithmisch wachsenden Candida-Zellen, die in physiologischer Kochsalzlösung suspendiert wurden, infiziert, Gleichzeitig mit der Infektion werden die Tiere mit jeweils 5,0 mg/kg Körpergewicht der Präparate oral behandelt.
# Die Behandlung wird 5 Tage fortgesetzt; die Tagesdosis beträgt jeweils 2 mal 5,0 mg/kg Körpergewicht.
# Unbehandelte Tiere sterben 3 bis 6 Tage post infektionem. Die Überlebensrate am 6.Tag post infektionem beträgt bei unbehandelten Kontrolltieren etwa 5 %.
# Toru-lopsis gla-brata = test: Antifungal in vitro activity (MIC), Kimmig medium; type: cell-based, Torulopsis glabrata; conditions: Nakaseomyces glabratus, inoculum 5 x 10³ Keime/ml, 28 °C, 24 to 96 h, read-out: MHK-Werte (minimale Hemmkonzentration)
# Procedure: as §1, §2
MIC (Tricho-phyton mentagr.),MIC (Asper-gillus fumi-gatus),MIC (Micro-sporum canis),MIC [1],MIC (Toru-lopsis gla-brata),Structure (SMILES),Wirkung (in words) [2],Wirkung [2],Wirkung (Candida-Zellen),Wirkung (in words) (Candida-Zellen)
32 µg/mL,64 µg/mL,32 µg/mL,16 to 32 µg/mL,64 µg/mL,"CC(C#N)C(O)(Cn1cncn1)c1ccc(Cl)cc1 (stereo not drawn) [(A), 3-(4-Chlorphenyl)-3-hydroxy-2-methyl-4-(1,2,4-triazol-1-yl)-butyronitril]",keine Wirkung,k.w.,k.w.,keine Wirkung
4 to 8 µg/mL,64 µg/mL,4 to 8 µg/mL,4 to 8 µg/mL,32 to 64 µg/mL,"CC(C)(C#N)C(O)(Cn1cncn1)c1ccc(Cl)cc1 (stereo not drawn) [(I), 3-(4-Chlorphenyl)-2,2-dimethyl-3-hydroxy-4-(1,2,4-triazol-1-yl)-butyronitril]",gute Wirkung,++++,++++ (= gute Wirkung = 80 % Überlebende am 6.Tag.p.i.),gute Wirkung
